Results: ChEMBL document CHEMBL5113390, “Design, synthesis and antitumor evaluation of novel 1H-indole-2-carboxylic acid derivatives targeting 14-3-3η protein” (Eur J Med Chem, 2022)
The source made the active and inactive calls. The calls are words filed in the database; no cut-off is given here.

Assays:
[1] = tested on: Bel-7402; experiment: Antiproliferative activity against human Bel-7402 cells assessed as reduction in cell viability incubated for 72 hrs by MTT assay; type: functional, cell-based; details: Bel-7402, 72 h
[2] = tested on: SMMC-7721; experiment: Antiproliferative activity against human SMMC-7721 cells assessed as reduction in cell viability incubated for 72 hrs by MTT assay; type: functional, cell-based; details: SMMC-7721, 72 h
[3] = tested on: SNU-387; experiment: Antiproliferative activity against human SNU-387 cells assessed as reduction in cell viability incubated for 72 hrs by MTT assay; type: functional, cell-based; details: SNU-387, 72 h
[4] = tested on: HepG2; experiment: Antiproliferative activity against human HepG2 cells assessed as reduction in cell viability incubated for 72 hrs by MTT assay; type: functional, cell-based; details: HepG2, 72 h
[5] = molecular target: T1, 14-3-3 protein eta (Homo sapiens, UniProt Q04917); experiment: Binding affinity to 14-3-3 eta (unknown origin) assessed as dissociation constant by biolayer interferometry assay
T1 sequence (Q04917 whole entry): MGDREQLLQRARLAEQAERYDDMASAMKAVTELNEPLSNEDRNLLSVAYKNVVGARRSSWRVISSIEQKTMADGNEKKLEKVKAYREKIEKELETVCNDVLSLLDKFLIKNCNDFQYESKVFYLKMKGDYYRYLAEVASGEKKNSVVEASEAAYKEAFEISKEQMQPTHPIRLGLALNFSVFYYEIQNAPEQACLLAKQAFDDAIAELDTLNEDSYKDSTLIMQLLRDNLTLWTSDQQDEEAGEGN

[6] = molecular target: T2, 14-3-3 protein eta (Homo sapiens) (UniProt Q04917); experiment: Inhibition of 14-3-3 eta in human Hep3B cells assessed as reduction in AKT phosphorylation at T308 residue measured after 24 hrs by western blot analysis; type: cell-based; details: dose 0.5-5 µM, DDE = dose-dependent effect
T2 sequence (whole entry): T1 sequence (Q04917 whole entry)

[7] = tested on: Hep 3B2; experiment: Antiproliferative activity against human Hep3B cells assessed as reduction in cell viability measured after 7 days by crystal violet staining based assay; type: functional; details: dose 1-10 µM, time 7.0 day, DDE = dose-dependent effect
[8] = tested on: Hep 3B2; experiment: Inhibition of cell invasion in human Hep3B cells incubated for 72 hrs by crystal violet staining based transwell assay; type: functional; details: dose 1-10 µM, DDE = dose-dependent effect
[9] = tested on: Hep 3B2; experiment: Induction of apoptosis in human Hep3B cells assessed as viable cells at 1 uM measured after 48 hrs by Annexin V/FITC-PI staining based flow cytometry assay (reference value: 90.09%); type: functional; details: read-out: Activity
[10] = tested on: Hep 3B2; experiment: Induction of apoptosis in human Hep3B cells assessed as early apoptotic cells at 1 uM measured after 48 hrs by Annexin V/FITC-PI staining based flow cytometry assay (reference value: 6.65%); type: functional
[11] = tested on: Hep 3B2; experiment: Induction of apoptosis in human Hep3B cells assessed as late apoptotic cells at 1 uM measured after 48 hrs by Annexin V/FITC-PI staining based flow cytometry assay (reference value: 3.14%); type: functional
[12] = tested on: Hep 3B2; experiment: Induction of apoptosis in human Hep3B cells assessed as early apoptotic cells at 2.5 uM measured after 48 hrs by Annexin V/FITC-PI staining based flow cytometry assay (reference value: 6.65%); type: functional
[13] = tested on: Hep 3B2; experiment: Induction of apoptosis in human Hep3B cells assessed as late apoptotic cells at 5 uM measured after 48 hrs by Annexin V/FITC-PI staining based flow cytometry assay (reference value: 3.14%); type: functional
[14] = tested on: Hep 3B2; experiment: Induction of apoptosis in human Hep3B cells assessed as necrotic cells at 5 uM measured after 48 hrs by Annexin V/FITC-PI staining based flow cytometry assay (reference value: 0.12%); type: functional
[15] = tested on: Hep 3B2; experiment: Induction of apoptosis in human Hep3B cells assessed as viable cells at 10 uM measured after 48 hrs by Annexin V/FITC-PI staining based flow cytometry assay (reference value: 90.09%); type: functional; details: read-out: Activity
[16] = tested on: Hep 3B2; experiment: Induction of apoptosis in human Hep3B cells assessed as early apoptotic cells at 10 uM measured after 48 hrs by Annexin V/FITC-PI staining based flow cytometry assay (reference value: 6.65%); type: functional
[17] = tested on: Hep 3B2; experiment: Induction of apoptosis in human Hep3B cells assessed as late apoptotic cells at 10 uM measured after 48 hrs by Annexin V/FITC-PI staining based flow cytometry assay (reference value: 3.14%); type: functional
[18] = tested on: Hep 3B2; experiment: Induction of apoptosis in human Hep3B cells assessed as necrotic cells at 10 uM measured after 48 hrs by Annexin V/FITC-PI staining based flow cytometry assay (reference value: 0.12%); type: functional
[19] = tested on: Hep 3B2; experiment: Induction of apoptosis in human Hep3B cells assessed as upregulation of cleaved PARP expression at 5 to 20 uM measured after 48 hrs by Western blot analysis; type: functional, cell-based; details: dose 5-20 µM
[20] = tested on: Hep 3B2; experiment: Induction of cell cycle arrest in human Hep3B cells assessed as accumulation at G0/G1 phase at 1 uM incubated for 48 hrs by flow cytometry analysis (reference value: 60.85 %); type: functional
[21] = tested on: Hep 3B2; experiment: Induction of cell cycle arrest in human Hep3B cells assessed as accumulation at S phase at 1 uM incubated for 48 hrs by flow cytometry analysis (reference value: 30.56 %); type: functional
[22] = tested on: Hep 3B2; experiment: Induction of cell cycle arrest in human Hep3B cells assessed as accumulation at G0/G1 phase at 2.5 uM incubated for 48 hrs by flow cytometry analysis (reference value: 60.85 %); type: functional
[23] = tested on: Hep 3B2; experiment: Induction of cell cycle arrest in human Hep3B cells assessed as accumulation at S phase at 2.5 uM incubated for 48 hrs by flow cytometry analysis (reference value: 30.56 %); type: functional
[24] = tested on: Hep 3B2; experiment: Induction of cell cycle arrest in human Hep3B cells assessed as accumulation at G0/G1 phase at 5 uM incubated for 48 hrs by flow cytometry analysis (reference value: 60.85 %); type: functional
[25] = tested on: Hep 3B2; experiment: Induction of cell cycle arrest in human Hep3B cells assessed as accumulation at S phase at 5 uM incubated for 48 hrs by flow cytometry analysis (reference value: 30.56 %); type: functional
[26] = tested on: Hep 3B2; experiment: Induction of cell cycle arrest in human Hep3B cells assessed as accumulation at G0/G1 phase at 10 uM incubated for 48 hrs by flow cytometry analysis (reference value: 60.85 %); type: functional
[27] = tested on: Hep 3B2; experiment: Induction of cell cycle arrest in human Hep3B cells assessed as accumulation at S phase at 10 uM incubated for 48 hrs by flow cytometry analysis (reference value: 30.56 %); type: functional
[28] = molecular target: Voltage-gated inwardly rectifying potassium channel KCNH2 (Homo sapiens, UniProt Q12809); experiment: Inhibition of hERG by automated patch clamp analysis; type: toxicity
Chain of Voltage-gated inwardly rectifying potassium channel KCNH2 (Q12809 whole entry): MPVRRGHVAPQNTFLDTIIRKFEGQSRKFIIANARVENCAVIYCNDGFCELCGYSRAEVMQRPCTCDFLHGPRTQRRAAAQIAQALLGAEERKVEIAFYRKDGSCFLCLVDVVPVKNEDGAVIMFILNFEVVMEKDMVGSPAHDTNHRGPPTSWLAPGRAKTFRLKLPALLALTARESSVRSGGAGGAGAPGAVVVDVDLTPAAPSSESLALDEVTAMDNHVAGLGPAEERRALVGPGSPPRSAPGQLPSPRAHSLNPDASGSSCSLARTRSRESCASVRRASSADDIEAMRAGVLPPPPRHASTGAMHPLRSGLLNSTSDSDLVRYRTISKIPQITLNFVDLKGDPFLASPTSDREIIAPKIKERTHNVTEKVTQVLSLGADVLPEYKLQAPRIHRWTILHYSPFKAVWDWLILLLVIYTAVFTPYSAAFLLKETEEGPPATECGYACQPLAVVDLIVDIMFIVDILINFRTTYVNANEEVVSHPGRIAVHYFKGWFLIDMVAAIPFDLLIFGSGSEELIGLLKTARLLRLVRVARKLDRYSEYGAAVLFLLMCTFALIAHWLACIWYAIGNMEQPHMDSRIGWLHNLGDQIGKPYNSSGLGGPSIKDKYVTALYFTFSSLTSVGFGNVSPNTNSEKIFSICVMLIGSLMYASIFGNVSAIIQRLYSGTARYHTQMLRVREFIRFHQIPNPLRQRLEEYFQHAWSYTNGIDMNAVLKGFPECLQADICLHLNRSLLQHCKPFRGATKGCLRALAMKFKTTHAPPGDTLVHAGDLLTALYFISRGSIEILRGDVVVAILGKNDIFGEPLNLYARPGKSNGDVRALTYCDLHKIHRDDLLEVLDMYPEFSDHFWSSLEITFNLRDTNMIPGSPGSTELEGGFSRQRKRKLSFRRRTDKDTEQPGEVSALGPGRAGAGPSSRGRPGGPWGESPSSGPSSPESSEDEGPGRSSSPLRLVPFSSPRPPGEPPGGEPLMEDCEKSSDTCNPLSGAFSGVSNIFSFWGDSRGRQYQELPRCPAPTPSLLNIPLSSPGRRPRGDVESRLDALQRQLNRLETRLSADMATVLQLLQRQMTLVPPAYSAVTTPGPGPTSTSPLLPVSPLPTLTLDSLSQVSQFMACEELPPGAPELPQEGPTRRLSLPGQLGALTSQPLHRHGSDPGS

[29] = tested on: hERG; experiment: Selectivity ratio of IC50 for inhibition of hERG by automated patch clamp analysis to IC50 for antiproliferative activity against human HepG2 cells assessed as reduction in cell viability incubated for 72 hrs by MTT assay; type: toxicity, cell-based; details: read-out: Ratio IC50
[30] = tested on: hERG; experiment: Selectivity ratio of IC50 for inhibition of hERG by automated patch clamp analysis to IC50 for antiproliferative activity against human Hep3B cells assessed as reduction in cell viability incubated for 72 hrs by MTT assay; type: toxicity, cell-based; details: read-out: Ratio IC50
[31] = Metabolic stability in human liver microsomes assessed as half life; type: ADME, Microsome
[32] = Metabolic stability in human liver microsomes assessed as intrinsic clearance; type: ADME, Microsome; details: read-out: CLH
[33] = Metabolic stability in rat liver microsomes assessed as half life; type: ADME, Microsome
[34] = Metabolic stability in rat liver microsomes assessed as intrinsic clearance; type: ADME, Microsome; details: read-out: CLH

COc1cccc(CNCc2c(C(=O)O)n(Cc3ccc(C)cc3)c3cc(C(C)C)ccc23)c1
IC50 [1]: 5.92 µM | IC50 [2]: 2.92 µM | IC50 [3]: 5.47 µM | IC50 [4]: 3.43 µM | Kd [5]: 35 µM | inhibition [6]: Dde | Activity [7]: Dde | inhibition [8]: Dde | viability at 1 µM [9]: 88% | Activity [10]: 6.8% | Activity [11]: 4.86% | Activity [12]: 8.74% | Activity [13]: 7.79% | Activity [14]: 1.07% | viability at 10 µM [15]: 61.9% | Activity [16]: 21.73% | Activity [17]: 13.52% | Activity [18]: 2.82% | Activity [19]: Active | Activity [20]: 58.63% | Activity [21]: 35.59% | Activity [22]: 59.12% | Activity [23]: 36.4% | Activity [24]: 58.48% | Activity [25]: 37.73% | Activity [26]: 67.7% | Activity [27]: 29.71% | IC50 [28]: 34.6 µM | selectivity ratio at 72 h [29]: 10.1 | selectivity ratio at 72 h [30]: 8.5 | half-life [31]: 7.31 min | CLint scaled [32]: 238 mL/min/kg | half-life [33]: 9.25 min | CLint scaled [34]: 269 mL/min/kg
